Test system: OCI-Ly10 human DLBCL cells
Test: OCI-Ly10 anti-proliferative activity (Resazurin, 72 h)
Assay type: cell-based
Conditions: read-out: Proliferation OCI-Ly10-IC50
Protocol: Compounds were assayed for effects on the growth of OCI-Ly10 human DLBCL cells that are dependent on NFκB signalling. OCI-Ly10 cells were grown in suspension in T225 flasks, centrifuged and re-suspended in 2.5% FBS containing media. Cells were then plated at 7.5×10^3 cells per well in 96-well plates in varying concentrations of compound and incubated for 72 h at 37° C. An additional plate of cells to be used as the Day 0 read was seeded without compound addition, Resazurin was added to each well, incubated for 5 h and the fluorescence measured at 590 nm. After 72 h of compound treatment, Resazurin was added to each well of the compound treated plates, incubated for 5 h and the fluorescence measured at 590 nm. The IC50 was then calculated by subtracting the average Day 0 value from each well value from the treated plates, each treatment was then calculated as a percentage of the DMSO control and the percentages plotted against the inhibitor concentration to estimate the IC50 from log [Inhibitor] vs response using the Variable Slope model in Graphpad prism from Graphpad software (SanDiego, Calif.).

COc1ccccc1C(=O)NCc1ccc(-c2nn(C3CCC(C(=O)N(C)C)CC3)c3ncnc(N)c23)cc1 (single isomer, unassigned; isomer 1) [33-isomer 1]
IC50: 10 to 100 nM

From patent publication US10611766B2, “Pyrazolopyrimidine derivatives as BTK inhibitors for the treatment of cancer” (Loxo Oncology, Inc., priority 2015, dated 2020)
